Measurements published in patent publication US20260146035A1, “FUSED BICYCLIC COMPOUNDS AND THEIR USE AS MER AND AXL INHIBITORS” (DONG-A ST CO., LTD., priority 2022, published 2026).
Read-outs that look alike come from different tables or passages of the source.

Tests used:
[1] = biological target: T1, human TYRO3 (455-end) (Homo sapiens, UniProt Q06418); experiment: HTRF kinase activity biochemical assay, TYRO3
T1 construct: TYRO3 (455-end); purchased SignalChem, Canada
T1 sequence (Q06418 455-890 limits assumed): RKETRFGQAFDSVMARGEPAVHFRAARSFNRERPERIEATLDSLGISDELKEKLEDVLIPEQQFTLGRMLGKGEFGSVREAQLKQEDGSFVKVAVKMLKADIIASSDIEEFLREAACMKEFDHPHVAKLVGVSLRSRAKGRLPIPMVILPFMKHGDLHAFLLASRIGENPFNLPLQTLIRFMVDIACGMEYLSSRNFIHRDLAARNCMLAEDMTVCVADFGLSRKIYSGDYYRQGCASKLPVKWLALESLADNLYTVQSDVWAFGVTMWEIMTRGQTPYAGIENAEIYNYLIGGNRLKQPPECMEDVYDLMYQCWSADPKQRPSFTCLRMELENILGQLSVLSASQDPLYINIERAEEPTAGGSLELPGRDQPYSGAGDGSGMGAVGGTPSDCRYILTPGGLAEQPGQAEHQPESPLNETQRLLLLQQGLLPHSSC

[2] = biological target: T2, human MER (528-end) (Homo sapiens, UniProt Q12866); experiment: HTRF kinase activity biochemical assay, MER; conditions: 10 μM ATP, 30 minutes pre-incubation; read-out: HTRF MERTK IC50
T2 construct: human MER (528-end); purchased Camnabio, Japan
T2 sequence (Q12866 528-999 limits assumed): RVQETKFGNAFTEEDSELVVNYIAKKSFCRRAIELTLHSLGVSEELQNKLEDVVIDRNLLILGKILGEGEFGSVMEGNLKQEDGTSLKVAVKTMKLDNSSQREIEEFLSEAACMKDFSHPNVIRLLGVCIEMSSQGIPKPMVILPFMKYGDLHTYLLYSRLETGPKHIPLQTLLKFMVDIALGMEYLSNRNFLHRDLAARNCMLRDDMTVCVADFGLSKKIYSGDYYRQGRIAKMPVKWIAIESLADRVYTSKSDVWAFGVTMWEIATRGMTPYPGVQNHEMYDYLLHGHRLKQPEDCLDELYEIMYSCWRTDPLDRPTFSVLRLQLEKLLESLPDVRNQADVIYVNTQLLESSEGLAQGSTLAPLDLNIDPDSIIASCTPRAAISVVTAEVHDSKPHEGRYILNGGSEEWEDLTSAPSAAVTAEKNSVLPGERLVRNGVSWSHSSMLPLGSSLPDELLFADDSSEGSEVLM

[3] = biological target: T3, human AXL (473-end) (Homo sapiens, UniProt P30530); experiment: HTRF kinase activity biochemical assay, AXL; conditions: 10 μM ATP, 30 minutes pre-incubation
T3 construct: human AXL (473-end); purchased SignalChem, Canada
T3 sequence (P30530 473-894 limits assumed): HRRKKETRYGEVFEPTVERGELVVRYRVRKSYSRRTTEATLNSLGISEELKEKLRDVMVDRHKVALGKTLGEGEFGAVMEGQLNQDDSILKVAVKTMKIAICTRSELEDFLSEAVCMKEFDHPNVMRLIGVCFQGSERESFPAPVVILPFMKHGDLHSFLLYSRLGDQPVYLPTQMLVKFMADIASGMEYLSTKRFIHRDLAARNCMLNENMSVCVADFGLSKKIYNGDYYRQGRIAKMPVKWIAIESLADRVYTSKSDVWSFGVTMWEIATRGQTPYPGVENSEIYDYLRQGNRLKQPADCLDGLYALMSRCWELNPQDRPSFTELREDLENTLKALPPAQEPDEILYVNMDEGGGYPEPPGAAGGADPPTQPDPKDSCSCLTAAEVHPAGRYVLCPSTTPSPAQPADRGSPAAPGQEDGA

[4] = 10 μM ATP, 30 minutes pre-incubation, read-out: HTRF TYRO IC50

Structure (SMILES)	IC50 [1, 4] [nM]	IC50 [2] [nM]	IC50 [3] [nM]	IC50 [1] [nM]
CC(C)n1ccc2cc(-c3ccc(CO[C@H]4CCC[C@@H]4NC(=O)c4cc(-c5cnn(C)c5)cnc4N)cc3)ccc21 [Example 60, 2-amino-5-(1-methyl-1H-pyrazol-4-yl)-N-[(1S,2S)-2-({4-[1-(propan-2-yl)-1H-indol-5-yl]phenyl}methoxy)cyclopentyl]pyridine-3-carboxamide]	> 1000	< 10	10 to 100	–
CN1CCN([C@H]2CCc3cc(-c4ccc(CO[C@H]5CCC[C@@H]5NC(=O)c5cc(-c6ccn(C)c(=O)c6)cnc5N)cc4)ccc32)CC1 [Example 115, 6-amino-1′-methyl-N-[(1S,2S)-2-({4-[(1S)-1-(4-methylpiperazin-1-yl)-2,3-dihydro-1H-inden-5-yl]phenyl}methoxy)cyclopentyl]-2′-oxo-1′,2′-dihydro[3,4′-bipyridine]-5-carboxamide]	100 to 1000	< 10	< 10	–
Cn1cc(-c2cnc(N)c(C(=O)N[C@H]3CCC[C@@H]3OCc3ccc(-c4ccc5c(c4)C(C)(C)CCC5N4CCNCC4)cc3)c2)cn1 (stereo partly drawn) [Example 146, 2-amino-N-[(1S,2S)-2-({4-[8,8-dimethyl-5-(piperazin-1-yl)-5,6,7,8-tetrahydronaphthalen-2-yl]phenyl}methoxy)cyclopentyl]-5-(1-methyl-1H-pyrazol-4-yl)pyridine-3-carboxamide]	10 to 100	< 10	< 10	–
CC1(C)C(=O)N(C2CCN(CCO)CC2)c2ccc(-c3ccc(CO[C@H]4CCC[C@@H]4NC(=O)c4cc(-c5ccc(F)nc5)cnc4N)cc3)nc21 [Example 74, 6-amino-6′-fluoro-N-{(1S,2S)-2-[(4-{1-[1-(2-hydroxyethyl)piperidin-4-yl]-3,3-dimethyl-2-oxo-2,3-dihydro-1H-pyrrolo[3,2-b]pyridin-5-yl}phenyl)methoxy]cyclopentyl}[3,3′-bipyridine]-5-carboxamide]	–	100 to 1000	> 1000	100 to 1000
Cn1cc(-c2cnc(N)c(C(=O)N[C@H]3COC[C@@H]3OCc3ccc(-c4ccc5c(ccn5C)c4)cc3)c2)cn1 [Example 16, 2-amino-N-[(3S,4R)-4-{[4-(1-methyl-1H-indol-5-yl)phenyl]methoxy}oxolan-3-yl]-5-(1-methyl-1H-pyrazol-4-yl)pyridine-3-carboxamide]	> 1000	10 to 100	10 to 100	–
Cn1cc(-c2cnc(N)c(C(=O)N[C@H]3CCC[C@@H]3OCc3ccc(-c4ccc5c(c4)C4(CC4)CN5C4CCN(CCO)CC4)cc3)c2)cn1 [Example 28, 2-amino-N-{(1S,2S)-2-[(4-{1′-[1-(2-hydroxyethyl)piperidin-4-yl]-1′,2′-dihydrospiro[cyclopropane-1,3′-indol]-5′-yl}phenyl)methoxy]cyclopentyl}-5-(1-methyl-1H-pyrazol-4-yl)pyridine-3-carboxamide]	10 to 100	10 to 100	10 to 100	–
Cn1ccc(-c2cc(C(=O)N[C@H]3CCC[C@@H]3OCc3ccc(-c4ccc5c(c4)CC(F)(F)C5N4CCN(CCO)CC4)cc3)cnc2N)cc1=O (stereo partly drawn) [Example 87, amino-N-{(1S,2S)-2-[(4-{2,2-difluoro-1-[4-(2-hydroxyethyl)piperazin-1-yl]-2,3-dihydro-1H-inden-5-yl}phenyl)methoxy]cyclopentyl}-1′-methyl-2′-oxo-1′,2′-dihydro[3,4′-bipyridine]-5-carboxamide]	100 to 1000	< 10	< 10	–
Cc1cn(C2CCN(CCO)CC2)c2ncc(-c3ccc(CO[C@H]4CCC[C@@H]4NC(=O)c4cc(-c5cnn(C)c5)cnc4N)cc3)cc12 [Example 110, 2-amino-N-{(1S,2S)-2-[(4-{1-[1-(2-hydroxyethyl)piperidin-4-yl]-3-methyl-1H-pyrrolo[2,3-b]pyridin-5-yl}phenyl)methoxy]cyclopentyl}-5-(1-methyl-1H-pyrazol-4-yl)pyridine-3-carboxamide]	100 to 1000	< 10	< 10	–
Nc1ncc(C(F)(F)F)cc1C(=O)N[C@H]1CCC[C@@H]1OCc1ccc(-c2ccc3c(ccn3C3CCN(CCO)CC3)c2)cc1 [Example 21, 2-amino-N-{(1S,2S)-2-[(4-{1-[1-(2-hydroxyethyl)piperidin-4-yl]-1H-indol-5-yl}phenyl)methoxy]cyclopentyl}-5-(trifluoromethyl)pyridine-3-carboxamide]	> 1000	< 10	10 to 100	–
CCCC1(C)CN(C2CCN(CCO)CC2)c2ccc(-c3ccc(CO[C@H]4CCC[C@@H]4NC(=O)c4cc(-c5cnn(C)c5)cnc4N)cc3)cc21 (mixture of isomers) [Example 39, 2-amino-N-{(1S,2S)-2-[(4-{1-[1-(2-hydroxyethyl)piperidin-4-yl]-3-methyl-3-propyl-2,3-dihydro-1H-indol-5-yl}phenyl)methoxy]cyclopentyl}-5-(1-methyl-1H-pyrazol-4-yl)pyridine-3-carboxamide]	< 10	< 10	< 10	–
Cc1cc(-c2cnc(N)c(C(=O)N[C@H]3CCC[C@@H]3OCc3ccc(-c4ccc5c(c4)CC[C@@H]5N4CCN(CCO)CC4)cc3)c2)sn1 [Example 175, 2-amino-N-{(1S,2S)-2-[(4-{(1S)-1-[4-(2-hydroxyethyl)piperazin-1-yl]-2,3-dihydro-1H-inden-5-yl}phenyl)methoxy]cyclopentyl}-5-(3-methyl-1,2-thiazol-5-yl)pyridine-3-carboxamide]	10 to 100	< 10	< 10	–
Cn1cc(-c2cnc(N)c(C(=O)N[C@H]3COC[C@@H]3OCc3ccc(-c4ccc5c(c4)CCC5N4CCN(CCO)CC4)cc3)c2)cn1 (stereo partly drawn) [Example 18, 2-amino-N-{(3S,4R)-4-[(4-{1-[4-(2-hydroxyethyl)piperazin-1-yl]-2,3-dihydro-1H-inden-5-yl}phenyl)methoxy]oxolan-3-yl}-5-(1-methyl-1H-pyrazol-4-yl)pyridine-3-carboxamide]	100 to 1000	< 10	10 to 100	–
Nc1ncc(-c2ccc(F)nc2)cc1C(=O)N[C@H]1CCC[C@@H]1OCc1ccc(-c2ccc3c(c2)CC[C@H]3N2CCN3C[C@H](O)C[C@H]3C2)cc1 [Example 118, 6-amino-6′-fluoro-N-{(1S,2S)-2-[(4-{(1R)-1-[(7R,8aS)-7-hydroxyhexahydropyrrolo[1,2-a]pyrazin-2 (1H)-yl]-2,3-dihydro-1H-inden-5-yl}phenyl)methoxy]cyclopentyl}[3,3′-bipyridine]-5-carboxamide]	> 1000	< 10	10 to 100	–
CC1(C)C[C@@H](N2CCN(CCO)CC2)c2ccc(-c3ccc(CO[C@H]4CCC[C@@H]4NC(=O)c4cc(-c5ccc(F)nc5)cnc4N)cc3)cc21 [Example 97, 6-amino-6′-fluoro-N-{(1S,2S)-2-[(4-{(1R)-1-[4-(2-hydroxyethyl)piperazin-1-yl]-3,3-dimethyl-2,3-dihydro-1H-inden-5-yl}phenyl)methoxy]cyclopentyl}[3,3′-bipyridine]-5-carboxamide]	> 1000	100 to 1000	100 to 1000	–
Cn1cc(-c2cnc(N)c(C(=O)N[C@H]3CCC[C@@H]3OCc3ccc(-c4ccc5c(c4)CC[C@@H]5N4CCN(C(CO)CO)CC4)cc3)c2)cn1 [Example 128, 2-amino-N-{(1S,2S)-2-[(4-{(1S)-1-[4-(1,3-dihydroxypropan-2-yl)piperazin-1-yl]-2,3-dihydro-1H-inden-5-yl}phenyl)methoxy]cyclopentyl}-5-(1-methyl-1H-pyrazol-4-yl)pyridine-3-carboxamide]	100 to 1000	< 10	< 10	–
